Laboratory results reported in US20140377265A1, “ANTICOAGULANT ANTIDOTES” (BOEHRINGER INGELHEIM INTERNATIONAL GMBH, priority 2011, published 2014).

What was measured:
[1] = test system: thrombin clotting time in human plasma; assay: Thrombin clotting time assay, dabigatran standard curve in human plasma; format: biochemical
Protocol: Briefly human plasma is obtained by taking whole blood into 3.13% sodium citrate. This is then centrifuged to obtain platelet free plasma and transferred to a separate tube and frozen until required on the day of the assay. Plasma is thawed at 37° C. on the day of the assay.
The thrombin clotting time is performed as follows. First thrombin is diluted to manufacturer's specification (3 IU/mL thrombin) in the buffer provided (Dade Behring Test kit) and prewarmed to 37° C. It is used within 2 hrs of being prepared. All assays were performed on a commercially available CL4 clotting machine (Behnk Electronics, Norderstadt, Germany). Fifty μL of plasma is pipetted into provided cuvettes with a magnetic stirrer and allowed to stir for 2 min in the well preheated to 37° C. in the CL4 machine. At this point 100 μL of the thrombin solution is added and the time required for the plasma sample to clot is recorded automatically by the CL4.

[2] = test system: activated partial thromboplastin time; details: cited from earlier work

Compound	thrombin clotting time ([1]; 200 nM dabigatran preincubated with human plasma)	elevation in clotting time over baseline ([1]; 200 nM dabigatran, human plasma)	increase in clotting time over baseline ([1]; 500 nM dabigatran, human plasma)	prolongation of the activated partial thromboplastin time compared with dabigatran [2]
Cn1c(CNc2ccc(C(=N)N)cc2)nc2cc(C(=O)N(CCC(=O)O)c3ccccn3)ccc21 [dabigatran, N-[2-(4-Amidinophenylaminomethyl)-1-methyl-1H-benzimidazol-5-ylcarbonyl]-N-(2-pyridyl)-beta-alanine]	51 s	~5 fold	~10 fold	–
Cn1c(CNc2ccc(C(=N)N)cc2)nc2cc(C(=O)N(CCC(=O)OC3OC(C(=O)O)C(O)C(O)C3O)c3ccccn3)ccc21 (stereo not shown) [1-O-acylglucuronide]	–	–	–	equipotent prolongation
